Laboratory results published in ChEMBL document CHEMBL6177955, “Design, synthesis and biological evaluation of Golgi-targeting anion transporters as inducers of Golgiphagy and apoptosis in cancer cells” (Eur J Med Chem, 2025).
pEC50, pIC50: −log10 of the molar value. Activity calls are given as the source filed them. The rule behind the calls is not given here.

Experiments:
Lipid bilayer [1] = assay: Vesicular anionophoric activity in large unilamellar vesicle membrane derived from egg-yolk L-alpha-phosphatidylcholine assessed as induction of relative efflux of chloride ions measured up to 300 seconds by using chloride-selective electrode
Lipid bilayer [2] = assay: Vesicular anionophoric activity in large unilamellar vesicle membrane derived from egg-yolk L-alpha-phosphatidylcholine assessed as induction of relative efflux of chloride ions in presence of lithium (Li+) measured up to 300 seconds by using chloride-selective electrode; settings: time <= 300.0 sec
Lipid bilayer [3] = assay: Vesicular anionophoric activity in large unilamellar vesicle membrane derived from egg-yolk L-alpha-phosphatidylcholine assessed as induction of relative efflux of chloride ions in presence of sodium (Na+) measured up to 300 seconds by using chloride-selective electrode; settings: time <= 300.0 sec
Lipid bilayer [4] = assay: Vesicular anionophoric activity in large unilamellar vesicle membrane derived from egg-yolk L-alpha-phosphatidylcholine assessed as induction of relative efflux of chloride ions in presence of potassium (K+) measured up to 300 seconds by using chloride-selective electrode; settings: time <= 300.0 sec
Lipid bilayer [5] = assay: Vesicular anionophoric activity in large unilamellar vesicle membrane derived from egg-yolk L-alpha-phosphatidylcholine assessed as induction of relative efflux of chloride ions in presence of rubidium (Rb+) measured up to 300 seconds by using chloride-selective electrode; settings: time <= 300.0 sec
Lipid bilayer [6] = assay: Vesicular anionophoric activity in large unilamellar vesicle membrane derived from egg-yolk L-alpha-phosphatidylcholine assessed as induction of relative efflux of chloride ions in presence of cesium (Cs+) measured up to 300 seconds by using chloride-selective electrode; settings: time <= 300.0 sec
Lipid bilayer [7] = assay: Vesicular anionophoric activity in Bulky nitrobenzene membrane assessed as induction of relative efflux of chloride ions measured up to 100 hrs by using chloride-selective electrode
A2780 = assay: Antiproliferative activity against human A2780 cells by MTT assay; assay type: functional, cell-based
HepG2 [8] = assay: Antiproliferative activity against human HepG2 cells by MTT assay; assay type: functional, cell-based
MCF7 = assay: Antiproliferative activity against human MCF7 cells by MTT assay; assay type: functional, cell-based
HT-29 = assay: Antiproliferative activity against human HT-29 cells by MTT assay; assay type: functional, cell-based
HCT-8 = assay: Antiproliferative activity against human HCT-8 cells by MTT assay; assay type: functional, cell-based
HepG2 [9] = assay: Induction of apoptosis in human HepG2 cells assessed as viable cells at 5 uM measured after 24 hrs incubation by Propidium iodide/Annexin V-FITC analysis (reference value: 90.2%); assay type: functional; settings: read-out: Activity
HepG2 [10] = assay: Induction of apoptosis in human HepG2 cells assessed as early apoptotic cells at 5 uM measured after 24 hrs incubation by Propidium iodide/Annexin V-FITC analysis (reference value: 2.90%); assay type: functional
HepG2 [11] = assay: Induction of apoptosis in human HepG2 cells assessed as late apoptotic cells at 5 uM measured after 24 hrs incubation by Propidium iodide/Annexin V-FITC analysis (reference value: 5.71%); assay type: functional
HepG2 [12] = assay: Induction of apoptosis in human HepG2 cells assessed as necrotic cells at 5 uM measured after 24 hrs incubation by Propidium iodide/Annexin V-FITC analysis (reference value: 1.14%); assay type: functional
HepG2 [13] = assay: Disruption of homeostasis of chloride anions in golgi apparatus of human HepG2 cells assessed as increase in fluorescence intensity of 6-methoxy-1-(2-oxo-2-((4-sulfamoylphenyl)amino)ethyl)quinolin-1-ium Bromide measured after 12 hts by CLSM imaging analysis; assay type: functional, cell-based
HepG2 [14] = assay: Suppression of Golgi structural and functional protein expression in human HepG2 cells assessed as decrease in GM130 protein expression at 20 uM measured after 48 hrs incubation by Western blot analysis; assay type: cell-based
HepG2 [15] = assay: Suppression of Golgi structural and functional protein expression in human HepG2 cells assessed as decrease in GRASP55 protein expression at 20 uM measured after 48 hrs incubation by Western blot analysis; assay type: cell-based
HepG2 [16] = assay: Disruption of homeostasis of chloride anions in golgi apparatus of human HepG2 cells assessed as increase in fluorescence intensity of 6-methoxy-1-(2-oxo-2-((4-sulfamoylphenyl)amino)ethyl)quinolin-1-ium Bromide at 50 uM measured after 12 hts by CLSM imaging analysis; assay type: functional, cell-based
HepG2 [17] = assay: Suppression of Golgi structural and functional protein expression in human HepG2 cells assessed as decrease in GM130 protein expression at 5 to 20 uM measured after 48 hrs incubation by Western blot analysis; assay type: cell-based; settings: dose 5-20 µM
HepG2 [18] = assay: Suppression of Golgi structural and functional protein expression in human HepG2 cells assessed as decrease in GRASP55 protein expression at 5 to 20 uM measured after 48 hrs incubation by Western blot analysis; assay type: cell-based; settings: dose 5-20 µM
HepG2 [19] = assay: Induction of chloride ion influx in human HepG2 cells assessed as effect on lysosomal chloride anions at […] measured after 12 hrs incubation by chloride-sensitive dye MQAE-MP based CLSM imaging analysis; assay type: functional, cell-based

| SMILES | EC50 (Lipid bilayer [1]) [mol%] | Activity (Lipid bilayer [2]) | Activity (Lipid bilayer [3]) | Activity (Lipid bilayer [4]) | Activity (Lipid bilayer [5]) | Activity (Lipid bilayer [6]) | pIC50 (A2780) | pIC50 (HepG2 [8]) | pIC50 (MCF7) | pIC50 (HT-29) | pIC50 (HCT-8) | Activity (Lipid bilayer [7]) | further results |
| --- | --- | --- | --- | --- | --- | --- | --- | --- | --- | --- | --- | --- | --- |
| NS(=O)(=O)c1ccc(NC(=O)CCCCCNc2c(Nc3ccc(Br)cc3)c(=O)c2=O)cc1 | 3.06 | Active | Active | Active | Active | Active | 4.31 | 4.44 | 4.81 | 4.73 | 4.39 | Active; Compound Exhibit Anion Transport Activity Most Probably Through Carrier Mechanism |  |
| COc1cccc2c1C(=O)c1c(O)c3c(c(O)c1C2=O)C[C@@](O)(C(=O)CO)C[C@@H]3O[C@H]1C[C@H](N)[C@H](O)[C@H](C)O1.Cl [DOXORUBICIN HYDROCHLORIDE] |  |  |  |  |  |  | 5.99 | 6.24 | 6.49 | 5.91 | 5.92 |  | viability at 5 µM (HepG2 [9]): 58.5%; Activity (HepG2 [10]): 16.8%; Activity (HepG2 [11]): 20.7%; Activity (HepG2 [12]): 3.96% |
| NS(=O)(=O)c1ccc(NC(=O)CCCCCNc2c(Nc3ccccc3)c(=O)c2=O)cc1 | 9.35 | Active | Active | Active | Active | Active | 4.33 | 4.57 | 4.54 | 4.53 | 4.64 | Active; Compound Exhibit Anion Transport Activity Most Probably Through Carrier Mechanism | pEC50 (HepG2 [13]): 4.51; Activity (HepG2 [14]): Active; Activity (HepG2 [15]): Active |
| COc1ccc(Nc2c(NCCCCCC(=O)Nc3ccc(S(N)(=O)=O)cc3)c(=O)c2=O)cc1 | > 10 | Active | Active | Active | Active | Active | < 4.30 | 4.38 | 4.40 | 4.31 | 4.35 | Active; Compound Exhibit Anion Transport Activity Most Probably Through Carrier Mechanism | Activity (HepG2 [16]): inactive; Activity (HepG2 [17]): inactive; Activity (HepG2 [18]): Active |
| NS(=O)(=O)c1ccc(NC(=O)CCCCCNc2c(Nc3ccc(C(F)(F)F)cc3)c(=O)c2=O)cc1 | 2.93 | Active | Active | Active | Active | Active | 4.68 | 4.57 | < 4.30 | 4.61 | 4.72 | Active; Compound Exhibit Anion Transport Activity Most Probably Through Carrier Mechanism |  |
| COc1ccc2c(ccc[n+]2CC(=O)Nc2ccc(S(N)(=O)=O)cc2)c1 |  |  |  |  |  |  |  |  |  |  |  |  | Activity (HepG2 [19]): Active |
| N#Cc1ccc(Nc2c(NCCCCCC(=O)Nc3ccc(S(N)(=O)=O)cc3)c(=O)c2=O)cc1 | 4.57 | Active | Active | Active | Active | Active | < 4.30 | 4.42 | 4.43 | 4.35 | 4.50 | Active; Compound Exhibit Anion Transport Activity Most Probably Through Carrier Mechanism |  |

Second part, led by results:

| EC50 (Lipid bilayer [1]) [mol%] | Activity (Lipid bilayer [2]) | Activity (Lipid bilayer [3]) | Activity (Lipid bilayer [4]) | Activity (Lipid bilayer [5]) | Activity (Lipid bilayer [6]) | pIC50 (A2780) | pIC50 (HepG2 [8]) | pIC50 (MCF7) | pIC50 (HT-29) | pIC50 (HCT-8) | SMILES | Activity (Lipid bilayer [7]) | further results |
| --- | --- | --- | --- | --- | --- | --- | --- | --- | --- | --- | --- | --- | --- |
| 3.44 | Active | Active | Active | Active | Active | < 4.30 | 4.69 | < 4.30 | 4.39 | 4.41 | NS(=O)(=O)c1ccc(NC(=O)CCCCCNc2c(Nc3cc(Cl)cc(Cl)c3)c(=O)c2=O)cc1 | Active; Compound Exhibit Anion Transport Activity Most Probably Through Carrier Mechanism |  |
| 2.86 | Active | Active | Active | Active | Active | < 4.30 | < 4.30 | < 4.30 | < 4.30 | < 4.30 | NS(=O)(=O)c1ccc(NC(=O)CCCCCNc2c(Nc3ccc([N+](=O)[O-])cc3)c(=O)c2=O)cc1 | Active; Compound Exhibit Anion Transport Activity Most Probably Through Carrier Mechanism |  |
| 3.08 | Active | Active | Active | Active | Active | < 4.30 | < 4.30 | < 4.30 | < 4.30 | < 4.30 | NS(=O)(=O)c1ccc(NC(=O)CCCCCNc2c(Nc3cc([N+](=O)[O-])cc([N+](=O)[O-])c3)c(=O)c2=O)cc1 | Active; Compound Exhibit Anion Transport Activity Most Probably Through Carrier Mechanism |  |
| 5.78 | Active | Active | Active | Active | Active | < 4.30 | 4.50 | 4.63 | 4.47 | 4.59 | NS(=O)(=O)c1ccc(NC(=O)CCCCCNc2c(Nc3ccc(Cl)cc3)c(=O)c2=O)cc1 | Active; Compound Exhibit Anion Transport Activity Most Probably Through Carrier Mechanism |  |
| > 10 | Active | Active | Active | Active | Active | < 4.30 | 4.44 | 4.48 | 4.32 | 4.49 | Cc1ccc(Nc2c(NCCCCCC(=O)Nc3ccc(S(N)(=O)=O)cc3)c(=O)c2=O)cc1 | Active; Compound Exhibit Anion Transport Activity Most Probably Through Carrier Mechanism |  |
| 3.76 | Active | Active | Active | Active | Active | < 4.30 | 4.47 | 4.52 | 4.38 | 4.44 | NS(=O)(=O)c1ccc(NC(=O)CCCCCNc2c(Nc3ccc(F)cc3)c(=O)c2=O)cc1 | Active; Compound Exhibit Anion Transport Activity Most Probably Through Carrier Mechanism |  |
